From PMC12130509, “Development of a small compound that regulates the function of a maltodextrin-binding protein of Streptococcus pyogenes by multifaceted screenings” (Scientific Reports, 2025)

What was measured:
SPs0871 [1] = biological target: T1, SPs0871 (Streptococcus pyogenes, UniProt A0A0H2UUQ6); experiment: MST binding analysis; settings: for concentration-dependent response by MST: 15.3 nM to 500 µM compound; for concentration-dependent response by MST / Kd: 100 nM SPs0871; for Kd: read-out: KD values calculated by MST analysis
T1 sequence (A0A0H2UUQ6 entry or part of it): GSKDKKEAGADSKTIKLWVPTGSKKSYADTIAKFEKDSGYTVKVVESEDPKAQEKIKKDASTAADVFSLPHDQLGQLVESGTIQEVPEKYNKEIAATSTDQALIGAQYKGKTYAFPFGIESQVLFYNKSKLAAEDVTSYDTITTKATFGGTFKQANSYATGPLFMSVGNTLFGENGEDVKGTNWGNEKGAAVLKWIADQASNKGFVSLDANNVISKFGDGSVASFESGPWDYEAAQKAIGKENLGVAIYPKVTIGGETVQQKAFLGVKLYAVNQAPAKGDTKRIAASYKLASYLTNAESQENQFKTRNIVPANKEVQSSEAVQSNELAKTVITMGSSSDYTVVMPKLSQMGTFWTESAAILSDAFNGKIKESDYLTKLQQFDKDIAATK
Protocol: (§1) MST was performed on a Monolith NT.115 instrument using Monolith NT.115 Series, Premium Capillaries, and His-tagged SPs0871 was labeled using the Monolith His-Tag Labeling Kit RED-Tris-NTA 2nd Generation (NanoTemper Technologies GmbH, Munich, Germany). The final concentration of SPs0871 was 100 nM, and the final concentration of the dye was 5 nM. The buffer was PBS-T (PBS, 0.005% Tween 20), 5% DMSO. A range of concentrations of compounds (15.3 nM to 500 µM) was tested.

MalE1 = experiment: MST analysis of bacterial species specificity; assay type: binding, L. casei
Description: Finally, to gain an insight into the specificity of the three compounds for bacterial species, we prepared MalE1 from L. casei as a recombinant protein and used MST to assess the binding of compounds 95,186, 95186b, and 95186c to MalE1.
(§2) The SPs0871 (including mutants) gene fragment encoding amino acids 27–415 was cloned into Escherichia coli expression vector pCold I (for MST) or pCold SUMO, in which the His6-SUMO-tag was introduced into the pCold I vector (Takara, Shiga, Japan). The same process was performed for MalE1 derived from the L. casei gene fragment encoding amino acids 28–410. The recombinant protein was expressed and purified as previously described.
as §1

SPs0871 [2] = biological target: T1, SPs0871; experiment: SPR analysis of binding to immobilized SPs0871 (Biacore T200); settings: for concentration-dependent response by SPR (derivatives, cross-validation): 3.125–200 µM
Protocol: The binding of maltotriose and compound derivatives to SPs0871 was assessed using a Biacore T200 instrument (Cytiva, Marlborough, MA, USA). SPs0871 was immobilized at 4300–4700 RU on the surface of a CM5 sensor chip (Cytiva) by the amine-coupling method according to the manufacturer’s instructions. The running buffer was phosphate buffered saline with Tween (PBS, 0.005% Tween 20), 5% DMSO. To measure the interaction of maltotriose with SPs0871, a range of concentrations of maltotriose (0.039–20 µM) were injected at a flow rate of 30 μL min^–1 with a 20 s association time and a 40 s dissociation time. To measure the interaction of compound derivatives with SPs0871, a range of concentrations of compound derivatives (3.125–200 µM) were injected at a flow rate of 30 μL min^–1 with a 20 s association time and a 40 s dissociation time. Data analysis was carried out using BIAevaluation software (Cytiva, version ver3.2.1, https://www.cytivalifesciences.com/ja/jp/support/software/biacore-downloads?_gl=1*18vz87l*_gcl_au*MjA3MjI1ODE4Ni4xNzQyOTU1NzY3*_ga*OTQ5NDM5MTMyLjE3NDI5NTU3Njg.*_ga_CS9H0CZBWW*MTc0NDQ0NjkwMy41LjEuMTc0NDQ0ODAwNC4wLjAuMA.). The KDs of the interactions were calculated from Scatchard plots.

S. pyogenes strain JRS4 = experiment: Growth assay in CDM supplemented with maltotetraose, JRS4; assay type: cell-based, Streptococcus pyogenes; settings: for GAS growth: 0.5% maltotetraose, 1% DMSO, OD600
Protocol: (§3) Bacteria were incubated in a carbohydrate-free chemically defined medium (CDM) supplemented with maltotetraose, which is thought to be taken up only via the SPs0871 pathway. […] Further, we also evaluated the antibacterial effect of 95,186 against SSI-1 strain, which is isolated from a STSS patient.
(§4) JRS4 and SSI-1 were used as GAS strains. The medium used as well as the procedure up to the assay were the same as previously described. […] For SSI-1, an additional 0.1% glucose was added to the CDM medium containing maltotetraose. To confirm the bacteriostatic effect of compound 95,186, the bacterial culture incubated in CDM was inoculated into THY medium to achieve a final OD600 value of 0.01.

SSI-1 strain = experiment: Growth assay in CDM medium, SSI-1; assay type: cell-based, Streptococcus pyogenes; settings: 100 µM compound, 0.5% maltotetraose plus 0.1% glucose
Protocol: as §3, §4

[3] = system: SPs0871 mutants (E146, K294, W256 mutated to alanine); experiment: MST binding to recombinant SPs0871 alanine mutants; design: species or system Streptococcus pyogenes
Description: To assess whether 95,186 competes with the natural ligand maltotriose in binding to SPs0871, we conducted MST analysis in the presence or absence of maltotriose. […] When we performed additional docking calculations using the Glide docking program (Schrodinger, New York, NY, USA) to identify hotspot residues for the compound binding, E146 and K294 were predicted to form hydrogen bonds and W256 was predicted to form van der Waals interactions during compound binding (Fig. 4B,C). We validated these predictions using recombinant SPs0871 mutants in which these residues were mutated to alanine.
as §2
as §1, with “The buffer was PBS-T (PBS, 0.005% Tween 20), 5% DMSO. A range of concentrations of compounds (15.3 nM to 500 µM) was tested.” left out

SPs0871 [4] = biological target: T1, SPs0871; experiment: SPR screening of direct binding to SPs0871 (Biacore 8K)
Description: In parallel, we conducted SPR screening to evaluate the direct binding of compounds to SPs0871. We immobilized SPs0871 on a sensor chip, flowed each compound to the chip in sequence, and evaluated the response for each compound. The response derived from maltotriose binding was designated as the positive control, with a relative value 100, and the response derived from the injection of running buffer was designated as the negative control, with a relative value 0. The molecular weight corrected value for each compound was used as the activity value.
Direct binding of compounds to SPs0871 was examined using a Biacore 8 K instrument (Cytiva). SPs0871 was immobilized at 3500–5300 RU on the surface of a CM5 sensor chip (Cytiva) by the amine-coupling method according to the manufacturer’s instructions. The running buffer was PBS-T (PBS, 0.005% Tween 20), 5% DMSO. In the screening, the final concentration of each compound was 100 µM, and samples were injected at a flow rate of 30 μL min^–1 with a 30 s association time. To check the concentration dependency, a range of concentrations of the compounds (3.125–50 µM) were injected at a flow rate of 30 μL min^–1 with a 20 s association time and a 30 s dissociation time. […]

SPs0871 [5] = biological target: T1, SPs0871; experiment: DSF, melting temperature of SPs0871; assay type: binding
Description: In the subsequent DSF screening, we measured the Tm value of SPs0871 in the presence of each compound. We also evaluated the structural stabilizing effect of each compound by binding it to SPs0871, which reflected the binding of the compound in the ligand binding pocket and the intramolecular interaction network. We included SPs0871 without small compounds as a negative control in each screening plate. The difference between the Tm value for each compound and the highest negative control Tm value in the same plate was used as the activity value for each compound.
DSF was performed on a CFX Connect Real-Time System (Bio-Rad, Hercules, CA, USA). The buffer was 1 × PBS, 5% DMSO except an experiment to assess the change of Tm value in a sugar concentration-dependent manner (Figure S1), in which DMSO was not added into the buffer. In the initial screening, the final concentration of the compounds was 100 µM and the concentration of SPs0871 was a 2 μM. One thousandth of the sample volume of SYPRO Orange Protein Gel Stain (5000 × concentrated in DMSO; Invitrogen, Waltham, MA, USA) was added, and samples containing 5 × SYPRO Orange were loaded onto 96-well PCR Plates (Bio-Rad) for measurement. The denaturation of protein was observed via fluorescence emitted from SYPRO Orange upon absorption to the exposed hydrophobic surface.

concentration-dependent response by MST (SPs0871 [1])	Compound	concentration-dependent response changes by MST with MalE1 (MalE1)	Kd (SPs0871 [1])	GAS growth (S. pyogenes strain JRS4; 100 µM compound)	further results
no change	Cc1ccc(-c2nnc3c4ccccc4c(C)nn23)cc1NC(=O)CN1CCCCC1 [95186a]	–	–	–	–
concentration-dependent response change	Cc1nn2c(-c3cccc(NC(=O)c4ccco4)c3)nnc2c2ccccc12 [95186d]	–	–	–	initial optical density at 600 nm (OD600) values (S. pyogenes strain JRS4; 100 µM in CDM with maltotetraose): high because of aggregation of the compounds in the medium as well as bacterial growth
no change	Cc1nn2c(-c3cccc(NC(=O)c4ccccc4)c3)nnc2c2ccccc12 [95186e]	–	–	–	–
no change	Cc1nn2c(-c3cccc(NC(=O)COc4ccccc4)c3)nnc2c2ccccc12 [95186f]	–	–	–	–
no change	Cc1nn2c(-c3cccc(NC(=O)CSc4nc5ccccc5o4)c3)nnc2c2ccccc12 [95186g]	–	–	–	–
no change	O=C(CN1CCCCC1)Nc1cccc(C(=O)Nc2cccc(C(F)(F)F)c2)c1 [95186h]	–	–	–	–
–	maltotriose [reference compound]	–	6.2 µM	–	Kd (SPs0871 [2]; maltotriose 0.039–20 µM, calculated from Scatchard plots, read-out: dissociation constant (KD) by SPR): 0.61 µM; increase of the melting temperature of SPs0871 (SPs0871 [5]; DSF, 10 µM maltotriose): 1.2 °C

Compound	concentration-dependent response by MST (SPs0871 [1])	concentration-dependent response changes by MST with MalE1 (MalE1)	Kd (SPs0871 [1])	GAS growth (S. pyogenes strain JRS4; 100 µM compound)	further results
Cc1nn2c(-c3cccc(NC(=O)CN4CCOCC4)c3)nnc2c2ccccc12 [95186b]	concentration-dependent response change	No concentration-dependent response changes were detected	67.1 µM	suppressed GAS growth	concentration-dependent response by SPR (derivatives, cross-validation) (SPs0871 [2]): observed concentration-dependent responses
CCC(=O)Nc1cccc(-c2nnc3c4ccccc4c(C)nn23)c1 [95186c]	concentration-dependent response change	No concentration-dependent response changes were detected	71.7 µM	suppressed GAS growth	concentration-dependent response by SPR (derivatives, cross-validation) (SPs0871 [2]): observed concentration-dependent responses
Cc1nn2c(-c3cccc(NC(=O)CN4CCCCC4)c3)nnc2c2ccccc12 [compound 95186]	showed a concentration-dependent response	No concentration-dependent response changes were detected	44.7 µM	suppressed GAS growth	maltodextrin dependent growth of SSI-1 (SSI-1 strain): suppressed the maltodexitrin dependent growth of SSI-1; MST response change upon binding to SPs0871 alanine mutants [3]: Only the W256A mutation attenuated the response change upon the binding; SPR activity value (molecular weight corrected relative response) (SPs0871 [4]; 100 µM compound, maltotriose response = 100, running buffer = 0, hit criterion ≥ 60): 162; concentration dependence of the binding by SPR (SPs0871 [4]; 3.125–50 µM, three independent experiments): concentration-dependent increase in response was reproducibly observed; ΔTm at 100 µM (SPs0871 [5]; 100 µM compound, 2 µM SPs0871, hit criterion > 0.4 °C, read-out: DSF activity value (Tm with compound minus highest negative control Tm in the same plate)): 0.6 °C; MST response in the presence of maltotriose (competition) (SPs0871 [1]; 60 µM maltotriose): concentration-dependent response disappeared; growth inhibition potential compared among compounds (S. pyogenes strain JRS4; 100 µM compound): highest growth inhibition potential; concentration dependence of growth suppression (S. pyogenes strain JRS4; JRS4, maltotetraose medium): concentration dependent above the KD value concentration; bactericidal or bacteriostatic effect (S. pyogenes strain JRS4; JRS4 exposed to compound transferred into THY medium, final OD600 0.01): bacteriostatic action
